Results published in PMC11472313, “Development of Fragment-Based Inhibitors of the Bacterial Deacetylase LpxC with Low Nanomolar Activity” (Journal of Medicinal Chemistry, 2024).
In brackets after ≈: the same amount, converted by molar mass. Where two headings read alike, the source gives them in different places.

How the values were obtained:
[1] = tested on: E. coli LpxC (EcLpxC); details: cited from earlier work
[2] = tested on: P. aeruginosa LpxC (PaLpxC); details: cited from earlier work
[3] = molecular target: T1, LasB (Pseudomonas aeruginosa, UniProt Q02RJ6); details: cited from earlier work
T1 construct: The elastase LasB of P. aeruginosa is a secreted metalloprotease; endogenous in cells; host or cells: P. aeruginosa PA14 culture supernatant
T1 sequence (Q02RJ6 198-498): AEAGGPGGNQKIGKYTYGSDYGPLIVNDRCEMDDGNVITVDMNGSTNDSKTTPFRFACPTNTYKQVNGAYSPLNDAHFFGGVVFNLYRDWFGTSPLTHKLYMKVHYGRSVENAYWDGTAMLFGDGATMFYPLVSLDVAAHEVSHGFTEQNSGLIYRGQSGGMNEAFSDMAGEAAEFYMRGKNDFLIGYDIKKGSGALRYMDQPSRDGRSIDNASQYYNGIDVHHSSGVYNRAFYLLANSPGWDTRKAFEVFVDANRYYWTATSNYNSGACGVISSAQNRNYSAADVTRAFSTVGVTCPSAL

[4] = molecular target: T2, P. aeruginosa LpxC (Pseudomonas aeruginosa, UniProt P47205); experiment: LC–MS/MS-based P. aeruginosa LpxC enzyme inhibition assay; format: biochemical; details: from IC50 via Cheng–Prusoff
T2 construct: made in house; host or cells: E. coli BL21(DE3)
T2 sequence (P47205 whole entry): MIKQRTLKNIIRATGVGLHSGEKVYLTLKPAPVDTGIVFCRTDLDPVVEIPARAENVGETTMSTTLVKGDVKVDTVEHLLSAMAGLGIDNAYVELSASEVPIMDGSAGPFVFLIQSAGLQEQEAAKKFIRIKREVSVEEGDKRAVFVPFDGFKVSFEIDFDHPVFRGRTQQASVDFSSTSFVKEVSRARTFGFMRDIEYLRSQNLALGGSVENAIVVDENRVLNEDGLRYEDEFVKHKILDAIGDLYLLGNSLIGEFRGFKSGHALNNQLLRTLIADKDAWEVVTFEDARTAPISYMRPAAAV
Excerpt: As Pseudomonas aeruginosa is one of the so-called ESKAPE pathogens,[56] being the leading cause of nosocomial infections throughout the world, and carbapenem-resistant P. aeruginosa strains were assigned the highest priority (priority 1: critical) within the “WHO priority pathogens list for R&D of new antibiotics” (WHO 2017),[57] new antibacterial agents combating these bacteria are urgently required. Thus, our newly developed LpxC inhibitors should be tested for inhibitory activity toward P. aeruginosa LpxC, which shares 57% sequence identity with E. coli LpxC.[28] Therefore, a liquid chromatography with tandem mass spectrometry (LC–MS/MS)-based P. aeruginosa LpxC assay was established. […] After incubation and subsequent termination of the enzymatic reaction, the samples were subjected to LC–MS/MS analysis. Following the chromatographic separation of substrate 1 and deacetylated product 2, the eluted compounds were ionized and subjected to fragmentation. Three multiple reaction monitoring (MRM) transitions were detected per compound [precursor ions: m/z (substrate 1) 832; m/z (deacetylated product 2) 790; product ions: m/z (product 1) 385, collision energy = −60 V; m/z (product 2) 159, collision energy = −80 V; m/z (product 3) 79, collision energy = −140 V]. The MRM transitions 832 → 79 of substrate 1 and 790 → 79 of product 2 were used as quantifiers; the other mass transitions were used as qualifiers.
The protocol of the LC–MS/MS-based P. aeruginosa LpxC assay was based on the E. coli LpxC C63A enzyme assay. Compared to the fluorescence-based enzyme assay, the substrate was diluted 1:10 and the inhibitors were diluted 1:4.
The wells in a black, nonbinding, 96-well fluorescence microplate (Greiner Bio One, Frickenhausen) were filled with 93 μL of 2.69 μM UDP-3-O-[(R)-3-hydroxymyristoyl]-N-acetylglucosamine in assay buffer [50 mM KH2PO4/K2HPO4 (pH = 7.5), 80 μM dithiothreitol, 0.02% Brij 35]. In order to assay the inhibitors at final concentrations from 5 nM up to 5 μM, 2 μL of a respective dilution of the compounds in DMSO were added. The addition of 5 μL of a solution of purified P. aeruginosa LpxC (5 μg mL^–1) in assay buffer led to final concentrations of 2.5 μM UDP-3-O-[(R)-3-hydroxymyristoyl]-N-acetylglucosamine, 7.5 nM P. aeruginosa LpxC, 2% DMSO, and from 5 nM up to 5 μM inhibitor. The microplate was incubated for 30 min at 37 °C in a plate shaker. Then, the biochemical reaction was stopped by adding 40 μL of 0.625 M hydrochloric acid. The reaction mixtures were further incubated for 10 min, sealed, and stored at −80 °C until analysis.
LC–MS/MS-Analysis. The reaction mixtures were separated by ultrahigh performance liquid-chromatography (1290 II Infinity UHPLC, Agilent Technologies), and the eluted compounds were analyzed by mass spectrometry using electrospray ionization in negative ion mode with a triple quadrupole linear ion trap mass spectrometer (QTRAP 5500, AB Sciex LLC).
To analyze the eluted compounds by mass spectrometry, a MRM method was applied. The specific parameters of this method are given in Table S2 (Supporting Information). After detection and selection of the precursor ions (1: m/z 832; 2: m/z 790), both analytes were fragmented, leading to three identical product ions [m/z (product 1) 385, collision energy = −60 V; m/z (product 2) 159, collision energy = −80 V; m/z (product 3) 79, collision energy = −140 V]. The mass transitions 832 → 79 (substrate 1) and 790 → 79 (product 2) were used as quantifiers; the other mass transitions were used as qualifiers. The ratio between substrate 1 and product 2 was quantified by comparing the peak areas of the quantifiers. The percentual inhibition caused by each inhibitor concentration was determined with respect to the amount of the product formed in the noninhibited reaction after 30 min.
Each assay was performed at least two times on separate days. […]

[5] = tested on: E. coli BL21(DE3); experiment: MIC, broth microdilution; format: cell-based; details: Escherichia coli, 20 h, 37 °C, LB
Procedure: (§1) Besides measuring the inhibitory activities toward E. coli LpxC C63A, the antibacterial activities of the synthesized hydroxamic acids were evaluated by determining their minimal inhibitory concentrations (MIC) in broth dilution tests as well as by performing disc diffusion assays (Table 1).
(§2) The MIC values of the compounds were determined by means of the microdilution method using 96-well plates.
(§3) The overnight suspension was diluted 1:1000 in fresh LB. 10 μL of a 2-fold dilution series of the compounds in DMSO and 90 μL of LB were dispensed to each well of a 96-well plate. Then, 100 μL of the inoculated medium was added, resulting in 5 × 10^5 cfu mL^–1, 5% DMSO, and a final concentration range of the test compounds between 64 and 0.016 μg mL^–1. The plates were incubated for 20 h at 37 °C. The MIC was defined as the lowest concentration of the compounds that prevented visible growth after incubation. Each assay was performed at least three times on separate days.

[6] = tested on: E. coli D22; experiment: MIC, broth microdilution; format: cell-based; details: Escherichia coli, 20 h, 37 °C, LB
Procedure: as §1, §2, §3

[7] = molecular target: T3, E. coli LpxC C63A (Escherichia coli, UniProt P0A725, C63A); experiment: fluorescence-based E. coli LpxC C63A enzyme inhibition assay; format: biochemical; details: Ki E. coli LpxC C63A, from IC50 via Cheng–Prusoff
T3 construct: made in house; host or cells: E. coli BL21(DE3)
T3 sequence (P0A725 whole entry C63A): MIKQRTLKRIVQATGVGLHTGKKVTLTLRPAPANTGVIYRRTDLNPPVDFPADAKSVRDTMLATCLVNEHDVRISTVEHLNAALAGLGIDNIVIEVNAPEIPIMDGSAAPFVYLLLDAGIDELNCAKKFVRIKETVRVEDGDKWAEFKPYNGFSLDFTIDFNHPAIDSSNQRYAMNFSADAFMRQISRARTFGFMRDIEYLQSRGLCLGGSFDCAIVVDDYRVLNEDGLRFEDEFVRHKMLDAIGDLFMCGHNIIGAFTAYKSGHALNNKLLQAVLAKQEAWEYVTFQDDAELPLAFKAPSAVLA
Procedure: In order to determine the inhibitory activities of the compounds of interest toward E. coli LpxC, a fluorescence-based enzyme assay was deployed, in which the formed deacetylated natural product UDP-3-O-[(R)-3-hydroxymyristoyl]glucosamine (2) is transformed into a fluorescent isoindole with o-phthaldialdehyde and 2-mercaptoethanol.[48],[49] […] The KM of E. coli LpxC C63A was determined experimentally using a mass spectrometry-based LpxC assay (Figure S8, Supporting Information, vide infra).
A fluorescence-based microplate assay for LpxC activity was performed as described by Clements et al.[48] The wells in a black, nonbinding, 96-well fluorescence microplate (Greiner Bio One, Frickenhausen) were filled with 93 μL of 26.9 μM UDP-3-O-[(R)-3-hydroxymyristoyl]-N-acetylglucosamine in assay buffer [40 mM sodium morpholinoethanesulfonic acid (pH 6.0), 80 μM dithiothreitol, 0.02% Brij 35]. In order to assay the inhibitors at final concentrations from 20 nM up to 20 μM, 2 μL of a respective dilution of the compounds in DMSO were added. The addition of 5 μL of a solution of purified LpxC (10 μg mL^–1) in assay buffer led to final concentrations of 25 μM UDP-3-O-[(R)-3-hydroxymyristoyl]-N-acetylglucosamine, 15 nM E. coli LpxC C63A, 2% DMSO, and from 20 nM up to 20 μM inhibitor. The microplate was incubated for 30 min at 37 °C in a plate shaker. Then, the biochemical reaction was stopped by adding 40 μL of 0.625 M sodium hydroxide. The reaction mixture was further incubated for 10 min and neutralized by adding 40 μL of 0.625 M acetic acid. The deacetylated product UDP-3-O-[(R)-3-hydroxymyristoyl]glucosamine was converted into a fluorescing isoindole by adding 120 μL of an o-phthaldialdehyde-2-mercaptoethanol solution, which was prepared by dissolving 10 mg of o-phthaldialdehyde in 1 mL of methanol, diluting the mixture with 24 mL of a sodium borate buffer (0.1 M), and finally adding 2.5 μL of 2-mercaptoethanol.[49] Fluorescence was measured with a TriStar^2 S LB 942 plate reader (Berthold, Bad Wildbad) at 340 nm excitation and 460 nm emission wavelengths. Each assay was performed at least three times on separate days. The IC50 values were calculated via Probit-log concentration graphs with the aid of the software Origin and were subsequently converted into Ki values using the Cheng–Prusoff equation.[75],[76]

[8] = tested on: E. coli BL21(DE3); experiment: disc diffusion assay; format: cell-based; details: 0.15 μmol per 6 mm disc
Procedure: as §1
(§4) The disc diffusion assays against E. coli BL21(DE3) and the defective strain E. coli D22 were performed as follows: liquid cultures of the bacteria were grown overnight in lysogeny broth (LB)[73] at 37 °C and 200 rpm. 150 μL of an overnight cell suspension was spread evenly onto LB agar plates. 0.15 μmol of each compound (dissolved in 10 or 15 μL DMSO) were applied onto circular filter paper (Ø = 6 mm, Cytiva). Pure DMSO, serving as a negative control, and CHIR-090, serving as a positive control, were also spotted. The agar plates were incubated overnight at 37 °C, and the diameter of the zone of growth inhibition was measured for each compound. Each assay was performed at least three times on separate days.

[9] = tested on: E. coli D22; experiment: disc diffusion assay; format: cell-based; details: 0.15 μmol per 6 mm disc
Procedure: as §1, §4

[10] = tested on: K. pneumoniae ATCC 700603; experiment: disc diffusion assay; format: cell-based, Klebsiella pneumoniae; details: 0.15 μmol per 6 mm disc
Procedure: (§5) In the performed disc diffusion assays, indole derivatives (S)-13h, (S)-13i, and (S)-13j caused promising halos of growth inhibition.
(§6) The disc diffusion assays against E. coli TOP10 (Thermo Fisher, Waltham, USA), E. coli ATCC 35218, K. pneumoniae ATCC 700603, and P. aeruginosa ATCC 27853 were performed as follows: the bacteria were grown overnight on a Columbia blood agar plate (Oxoid, Basingstoke, UK), and one colony was suspended in sterile saline to yield a suspension of 0.5 McFarland standard. Using a sterile swab, the suspension was spread evenly onto Mueller–Hinton agar (Oxoid, Basingstoke, UK). 0.15 μmol of each compound (dissolved in 10 μL DMSO) was applied onto circular 6 mm diameter filter paper disks, which were then placed on the agar. After incubating the agar plates for 20 h at 37 °C, the diameter of the zone of growth inhibition was measured for each compound.

[11] = tested on: E. coli TOP10; experiment: disc diffusion assay; format: cell-based; details: 0.15 μmol per 6 mm disc
Procedure: as §5, §6

[12] = tested on: P. aeruginosa ATCC 27853; experiment: disc diffusion assay; format: cell-based; details: 0.15 μmol per 6 mm disc
Procedure: as §5, §6

[13] = tested on: E. coli ATCC 35218; experiment: disc diffusion assay; format: cell-based; details: 0.15 μmol per 6 mm disc
Procedure: as §5, §6

[14] = molecular target: T1, LasB; experiment: FRET-based LasB in vitro inhibition assay; format: biochemical, P. aeruginosa PA14
Procedure: Purification of LasB from P. aeruginosa PA14 supernatant and the subsequent performance of the FRET-based in vitro inhibition assay was performed as described previously.[66] The TACE (ADAM-17) inhibitor screening kit was purchased from Sigma-Aldrich (Saint Louis, MO). MMPs 1–3 along with the SensoLyte 520 Generic MMP Activity Kit Fluorimetric were purchased from AnaSpec (Fremont, CA, USA). The assays were performed according to the guidelines of the respective manufacturer. Fluorescence signals were measured using a CLARIOstar plate reader (BMG Labtech, Ortenberg, Germany).

## O=c1ccn([C@@H]2O[C@H](CO/N=C/c3ccc(O)c(O)c3O)[C@@H](O)[C@H]2O)c(=O)[nH]1 [1-68A, 1–68A]
[1]
  IC50: 27000 nM

## CC(O)(c1ccc(O)cc1)C(NC(=O)c1ccc(C#CC#Cc2ccc(N)cc2)cc1)C(=O)NO (stereo not shown) [3b]
[1]
  Ki: 0.024 nM

## C[C@@](CO)(OCc1ccc(-c2ccccc2)cc1)C(=O)NO [5a]
[2]
  IC50: 22 nM

## C[C@@](OCc1ccc(-c2ccccc2)cc1)(C(=O)NO)[C@@H](O)c1ccccn1 [5b]
[2]
  IC50: 15 nM

## C[C@@](OCc1ccc(-c2ccccc2)cc1)(C(=O)NO)[C@@H](O)c1cnc[nH]1 [5c]
[2]
  IC50: 0.8 nM

## Cc1cc([C@H](O)[C@](C)(OCc2ccc(-c3ccccc3)cc2)C(=O)NO)no1 [5d]
[2]
  IC50: 0.4 nM

## CCc1ccc(-c2ccc(C(=O)N[C@H](C(=O)NO)[C@@H](C)N)cc2)cc1 [7a]
[2]
  PaLpxC: IC50: 0.0005 µg/mL

## CCc1ccc(-c2ccc(C(=O)N[C@H](C(=O)NO)[C@@H](C)NCC(=O)O)cc2)cc1 [7b]
[2]
  PaLpxC: IC50: 0.0004 µg/mL

## CCc1ccc(-c2ccc(C(=O)N[C@H](C(=O)NO)[C@@H](C)NCc3ccccn3)cc2)cc1 [7d]
[2]
  PaLpxC: IC50: 0.041 µg/mL

## O=C(NO)[C@H](OCc1ccc(C#Cc2ccc(CN3CCOCC3)cc2)cc1)[C@H](O)COCc1ccccc1 [(2R,3R)-10]
[3]
  LasB Inhibition at 20 μM: n.i. (n.i.: <10% inhibition)

## O=C(NC[C@@H](OCc1ccc(C#Cc2ccc(CN3CCOCC3)cc2)cc1)C(=O)NO)c1c[nH]c2ccccc12 [(R)-13h]
[4]
  Ki: 631 ± 198 nM
[5]
  MIC: > 16 µg/mL
[6]
  MIC: 4 µg/mL (≈ 7.24 µM)
[7]
  Ki: 1580 ± 216 nM
[8]
  Inhibition zone E. coli BL21(DE3): ≤6 mm
[9]
  Inhibition zone E. coli D22: 13.3 ± 1.0 mm

## O=C(NC[C@H](OCc1ccc(C#Cc2ccc(CN3CCOCC3)cc2)cc1)C(=O)NO)c1ccc(-c2ccccc2)cc1 [(S)-13b]
[10]
  Inhibition zone K. pneumoniae ATCC 700603: <6 mm
[5]
  MIC: > 16 µg/mL
[6]
  MIC: 0.13 µg/mL (≈ 0.22 µM)
[11]
  Inhibition zone E. coli TOP 10: <6 mm
[12]
  Inhibition zone P. aeruginosa ATCC 27853: <6 mm
[13]
  Inhibition zone E. coli ATCC 35218: <6 mm
[7]
  Ki: > 2540 nM
[14]; 20 μM
  LasB Inhibition at 20 μM: little to no inhibitory activity
[14]; read-out: LasB Inhibition at 20 μM
  inhibition at 20 µM: < 10%
[8]
  Inhibition zone E. coli BL21(DE3): ≤6 mm
[9]
  Inhibition zone E. coli D22: 11.2 ± 2.9 mm

## CC(O)C(NC(=O)c1ccc(C#CC#Cc2ccc(N)cc2)cc1)C(=O)NO (stereo not shown) [LPC-011]
[1]
  Ki: 0.039 nM
